Data published in PMC2865582 (Journal of medicinal chemistry, 2010).

Biological target: T1, human GVIA iPLA2 (Homo sapiens, UniProt O60733)
T1 sequence (O60733 1-806): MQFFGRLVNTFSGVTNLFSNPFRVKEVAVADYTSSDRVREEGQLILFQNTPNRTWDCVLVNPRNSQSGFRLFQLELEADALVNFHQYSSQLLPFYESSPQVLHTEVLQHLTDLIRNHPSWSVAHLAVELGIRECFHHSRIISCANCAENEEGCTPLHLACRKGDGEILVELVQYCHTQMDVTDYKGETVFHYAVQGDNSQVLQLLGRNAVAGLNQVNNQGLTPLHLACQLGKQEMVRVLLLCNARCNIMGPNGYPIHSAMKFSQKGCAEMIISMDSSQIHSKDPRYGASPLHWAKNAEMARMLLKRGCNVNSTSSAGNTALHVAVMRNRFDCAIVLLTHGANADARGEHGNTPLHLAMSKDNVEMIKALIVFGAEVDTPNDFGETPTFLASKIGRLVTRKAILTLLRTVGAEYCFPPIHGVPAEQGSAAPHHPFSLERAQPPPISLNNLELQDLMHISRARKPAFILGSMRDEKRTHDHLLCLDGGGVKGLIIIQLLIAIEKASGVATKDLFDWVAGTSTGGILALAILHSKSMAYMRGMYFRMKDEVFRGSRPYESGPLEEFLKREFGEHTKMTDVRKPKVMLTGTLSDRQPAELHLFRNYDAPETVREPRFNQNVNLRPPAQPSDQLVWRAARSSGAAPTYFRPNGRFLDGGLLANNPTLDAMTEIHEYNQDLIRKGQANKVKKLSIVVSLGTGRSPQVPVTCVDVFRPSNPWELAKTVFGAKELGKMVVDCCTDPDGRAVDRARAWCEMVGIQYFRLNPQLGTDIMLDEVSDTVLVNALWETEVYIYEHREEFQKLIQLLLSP
Experiment: Mixed micelle-based
Type: biochemical

[1] = XI(50) compared with inhibitor 2

Compound | times less potent on GVIA iPLA2 than inhibitor 2 [1] [times] | further results
O=C(CCCOc1ccccc1)C(F)(F)C(F)(F)F [12a, 1,1,1,2,2-Pentafluoro-6-phenoxyhexan-3-one] | 2.5 | –
O=C(CCCCc1ccccc1)C(F)(F)C(F)(F)F [compound 2, 1,1,1,2,2-pentafluoro-7-phenylheptan-3-one] | – | inhibition at 0.091 mole fraction (read-out: GVIA iPLA2 % Inhibition): 99.4 ± 0.1%
O=C(CCCCc1ccc2ccccc2c1)C(F)(F)F [12g, 1,1,1-Trifluoro-6-(naphthalen-2-yl)hexan-2-one] | – | times higher inhibition of GVIA iPLA2 than inhibitor 2 [1]: 7 times
O=C(/C=C/C=C/c1ccccc1)C(F)(F)C(F)(F)F [compound 10, (4E,6E)-1,1,1,2,2-Pentafluoro-7-phenylhepta-4,6-dien-3-one] | 22 | –
